The nature of series [1]: Half life in rat. Type of series: ADME, organism-based. Conditions: in vivo; call rule not given here.
Series [2] can be described thus: Clearance in rat. It is filed as ADME, organism-based. Conditions: in vivo.
Series [3] can be described thus: AUC in rat. It is filed as ADME, organism-based. Conditions: plasma.
Series [4] is described as follows: Oral bioavailability in rat. Conditions: in vivo. Type of series: ADME, organism-based.
Series [5] is described as follows: in vitro. Conditions: mouse, liver microsomes.
Series [6] is described as follows: in vitro. Conditions: human, liver microsomes.
Series [7] in a line: in vitro. Conditions: human, liver microsomes. This is another data set of the same source.
Series [8] is described as follows: in vitro. Conditions: mouse, liver microsomes. The source holds these as a separate data set.
The conditions of series [9]: mouse, microsomes, 0.5 h, 1 µM.
Series [10] deals with Liver microsomes. Conditions: human, 0.5 h, 1 µM.
In series [11] the test system is Liver microsomes. Conditions: human, 0.5 h, 2 µM.
For series [12] the following is noted: mouse, microsomes, 0.5 h, 2 µM.

The results in this text go back to ChEMBL document CHEMBL1156139, “N-Bridged bicyclic sulfonamides as inhibitors of gamma-secretase” (Bioorg Med Chem Lett, 2009).

The structures appear in SMILES notation.

`O=S(=O)(c1ccc(Cl)cc1)N1C2CCCC1c1cn[nH]c1C2` (stereo unspecified) displayed a half-life in series [1] of 0.4 h. Also, the clearance in series [2] was 38.9 mL/min/kg. The compound also returned an AUC in series [3] of 0.16 µM·h. The bioavailability in series [4] turned out to be 2%. The fraction remaining at 0.5 h, 1 µM came to 15% in the series “in vitro [5]” (Stability) and 48% in “in vitro [6]” (Stability). In addition, the amount remaining at 0.5 h, 2 µM in the series “in vitro [7]” (Stability) stood at 0%; in “in vitro [8]” (Stability) it was 5%.
As for `Cl.O=S(=O)(c1ccc(Cl)cc1)N1C2COCC1c1cn[nH]c1C2` (stereo unspecified), the Stability in series [9] turned out to be 78%; in the series with Liver microsomes [10] it was 81%; in the series on Liver microsomes [11] it was 71%; in series [12] it was 94%.
Regarding `CN(C)C(=O)N1CC2Cc3[nH]ncc3C(C1)N2S(=O)(=O)c1ccc(Cl)cc1` (stereo unspecified), the Stability result (in the series on Liver microsomes [11]; in series [12]) was “Not Active” each time. The amount remaining at 0.5 h, 1 µM was 56% in the series “in vitro [5]” (Stability) and 86% in “in vitro [6]” (Stability).
Regarding `O=S(=O)(c1ccc(Cl)cc1)N1C2Cc3[nH]ncc3C1CC(/C=C\C(F)(F)F)C2` (stereo unspecified), the Stability result (with Liver microsomes [11]; in series [12]) was “Not Active” each time. For the same compound, the share remaining at 0.5 h, 1 µM in the series “in vitro [5]” (Stability) is 17%; in the series “in vitro [6]” (Stability), 38%.
Consider `O=S(=O)(c1ccc(Cl)cc1)N1C2Cc3[nH]ncc3C1CC(/C=C\Cl)C2` (stereo unspecified), for which the Stability entry (with Liver microsomes [11]; in series [12]) was “Not Active” throughout. Moreover, the amount remaining at 0.5 h, 1 µM in the series “in vitro [5]” (Stability) amounted to 3%; in “in vitro [6]” (Stability), 14%.
With `CS(=O)(=O)N1CC2Cc3[nH]ncc3C(C1)N2S(=O)(=O)c1ccc(Cl)cc1` (stereo unspecified), the share remaining at 0.5 h, 1 µM in “in vitro [5]” was determined as 80%; in “in vitro [6]”, 84%. Also, the share remaining at 0.5 h, 2 µM in the series “in vitro [7]” was determined as 55%; in the series “in vitro [8]”, 96%.
With `O=C(O)C1CC2Cc3[nH]ncc3C(C1)N2S(=O)(=O)c1ccc(Cl)cc1` (stereo unspecified), the Stability result (in [9]; in the series with Liver microsomes [10]; in the series with Liver microsomes [11]; in [12]) was “Not Active” each time.
In the case of `O=S(=O)(c1ccc(Cl)cc1)N1C2Cc3[nH]ncc3C1CC(/C=C/Cl)C2` (stereo unspecified), the share remaining at 0.5 h, 1 µM in the series “in vitro [5]” (Stability) stood at 7%; in “in vitro [6]” (Stability), 6%. Further, the amount remaining at 0.5 h, 2 µM amounted to 1% in the series “in vitro [7]” (Stability) and 37% in the series “in vitro [8]” (Stability).
As to `O=S(=O)(c1ccc(Cl)cc1)N1C2Cc3[nH]ncc3C1CC(/C=C/C(F)(F)F)C2` (stereo unspecified), the share remaining at 0.5 h, 1 µM turned out to be 36% in “in vitro [5]” (Stability) and 6% in the series “in vitro [6]” (Stability). Further, the share remaining at 0.5 h, 2 µM in “in vitro [7]” (Stability) is 2%; in “in vitro [8]” (Stability), 39%.
For `N#CC1CC2Cc3[nH]ncc3C(C1)N2S(=O)(=O)c1ccc(Cl)cc1` (stereo in doubt), the half-life in [1] was determined as 1.02 h. In series [2], this compound gave a clearance of 28.4 mL/min/kg. For the same compound, the exposure (AUC) in [3] came out at 3.4 µM·h. Also, in [4], the bioavailability amounted to 21%. Further, the Stability in [9] worked out at 74%; with Liver microsomes [10], 70%. The amount remaining at 0.5 h, 2 µM stood at 45% in the series “in vitro [7]” (Stability) and 81% in “in vitro [8]” (Stability).
In series [1], `O=S(=O)(c1ccc(Cl)cc1)N1C2COCC1c1cn[nH]c1C2` (stereo in doubt) came in with a half-life of 1.15 h. Also, the clearance in series [2] is 31.2 mL/min/kg. In series [3], this compound gave an AUC of 2.9 µM·h. For the same compound, in [4], the bioavailability stood at 19%. Besides, the Stability in series [9] was 80%; in the series on Liver microsomes [10], 78%; in the series with Liver microsomes [11], 86%; in [12] it was 100%.
In the series with Liver microsomes [10], `O=S(=O)(c1ccc(Cl)cc1)N1C2COCC1c1cn[nH]c1C2` (stereo in doubt; 32) registered a Stability of 100%. The compound also displayed a share remaining at 0.5 h, 1 µM in the series “in vitro [5]” (Stability) of 75%. The share remaining at 0.5 h, 2 µM in “in vitro [7]” (Stability) worked out at 71%; in “in vitro [8]” (Stability) it was 93%.
Turning to `N#CC1CC2Cc3[nH]ncc3C(C1)N2S(=O)(=O)c1ccc(Cl)cc1` (stereo in doubt; form 1), the Stability in [9] is 80%; in the series on Liver microsomes [10], 72%.
As to `N#CC1CC2Cc3[nH]ncc3C(C1)N2S(=O)(=O)c1ccc(Cl)cc1` (stereo in doubt; form 2), the Stability result (in the series on Liver microsomes [11]; in series [12]) was “Not Active” in each case. For the same compound, the amount remaining at 0.5 h, 1 µM in the series “in vitro [5]” (Stability) was 86%; in “in vitro [6]” (Stability), 68%.
